{"source": "ChEMBL document CHEMBL1201862", "about": "“PubChem BioAssay data set” (2004)", "key": {"Protein skinhead-1": {"biological_target": "T1, Protein skinhead-1 (Caenorhabditis elegans, UniProt P34707)", "T1 sequence (P34707 whole entry)": "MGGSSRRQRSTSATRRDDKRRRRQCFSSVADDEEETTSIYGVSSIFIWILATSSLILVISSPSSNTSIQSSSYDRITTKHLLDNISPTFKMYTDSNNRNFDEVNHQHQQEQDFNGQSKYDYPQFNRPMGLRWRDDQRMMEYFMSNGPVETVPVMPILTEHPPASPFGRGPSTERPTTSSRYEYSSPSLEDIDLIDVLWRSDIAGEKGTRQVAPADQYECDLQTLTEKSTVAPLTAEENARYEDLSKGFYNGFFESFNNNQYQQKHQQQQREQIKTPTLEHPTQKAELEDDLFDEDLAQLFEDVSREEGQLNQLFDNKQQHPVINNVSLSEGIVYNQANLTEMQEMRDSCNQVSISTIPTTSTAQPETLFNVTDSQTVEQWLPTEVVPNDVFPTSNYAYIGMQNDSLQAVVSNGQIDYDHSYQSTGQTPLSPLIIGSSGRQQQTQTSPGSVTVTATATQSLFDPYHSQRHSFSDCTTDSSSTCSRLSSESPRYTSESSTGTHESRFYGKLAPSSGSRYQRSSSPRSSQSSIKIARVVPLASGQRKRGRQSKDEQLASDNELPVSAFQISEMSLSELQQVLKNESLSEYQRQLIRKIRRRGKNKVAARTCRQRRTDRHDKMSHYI", "format": "functional"}, "HEK293 [1]": {"test_system": "HEK293", "experiment": "cells", "conditions": "Homo sapiens"}, "HEK293 [2]": {"test_system": "HEK293", "experiment": "cells", "conditions": "Homo sapiens", "remark": "listed apart in the source"}, "[3]": {"experiment": "Luminescence Cell-Based Dose Retest to Confirm Inhibitors of Cancer Stem Cells. [Related pubchem assays (depositor defined):AID2717, AID2721]", "format": "functional", "conditions": "Homo sapiens"}, "[4]": {"experiment": "Counterscreen for AddAB inhibitors: absorbance-based bacterial cell-based high throughput dose response assay for inhibitors of bacterial viability. [Related pubchem assays (depositor defined):AID435030, AID449728, AID449731, AID488942, AID488955, AID488956]", "format": "functional"}, "CHO": {"test_system": "CHO", "experiment": "cytotoxicity in TLR9-MyD88 CHO cells, dose response, cytotoxicity control for TLR9-MyD88 binding inhibitor project, cell-based, luminescence (AID 588339);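 note: compound exposure lasted 48 hours before viability readout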", "format": "functional, hamster", "conditions": "Cricetulus griseus"}, "[5]": {"experiment": "Fluorescence-based cell-based high throughput dose response assay for inhibitors of the interaction of nucleotide-binding oligomerization domain containing 2 (NOD2) and the receptor-interacting serine-threonine kinase 2 (RIPK2).", "format": "functional", "conditions": "Homo sapiens"}, "[6]": {"experiment": "inhibitors of intracellular T. cruzi replication, confirmation, NIH3T3 host cells, beta-gal luminescence (AID 2044);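 note: luminescent beta-galactosidase reporter signal from transgenic T. cruzi replicating inside host cells; inhibitors lower the luminescence signal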", "format": "functional, cell-based"}, "[7]": {"experiment": "cytotoxicity toward NIH3T3 fibroblasts, dose response, counter-screen, cell-based, ATP luminescence, mouse fibroblasts (AID 2010);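 note: cells exposed to compound for about 90 hours before reading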", "format": "functional"}, "[8]": {"experiment": "inhibitors of HIV Env-driven cell fusion, dose response, cherry-pick (AID 652057)", "format": "functional, cell-based"}, "[9]": {"experiment": "CEM21 lymphoblast cell cytotoxicity, dose response, cytotoxicity control for viral fusion inhibitor project, CellTiter-Glo luminescence, cherry-picked (AID 652042);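 note: potency for signal decrease meaning cytotoxicity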", "format": "functional, cell-based"}, "[10]": {"experiment": "ZM109 Env clade C HIV-1 fusion inhibitors, dose response, HeLa effector, CEM target cells, luciferase, cherry-pick (AID 652058)", "format": "functional, cell-based"}, "[11]": {"experiment": "off-target signal loss in HeLa-CEM21 co-culture – HeLa F-luc CTL cells, cherry-picked, counter-screen for HIV-1 Env fusion inhibitor project, dose response (AID 652040);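 note: potency for signal decrease marking cytotoxic or nonspecific inhibition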", "format": "functional, cell-based"}, "[12]": {"experiment": "inhibitors of clade B AD8 Env fusion, dose response, cell-based, cherry-pick (AID 652062);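 note: potency is for inhibitors of fusion seen as a drop in luminescence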", "format": "functional"}, "Cytochrome P450 1A2": {"biological_target": "T2, Cytochrome P450 1A2 (Homo sapiens, UniProt P05177)", "T2 sequence (P05177 whole entry)": "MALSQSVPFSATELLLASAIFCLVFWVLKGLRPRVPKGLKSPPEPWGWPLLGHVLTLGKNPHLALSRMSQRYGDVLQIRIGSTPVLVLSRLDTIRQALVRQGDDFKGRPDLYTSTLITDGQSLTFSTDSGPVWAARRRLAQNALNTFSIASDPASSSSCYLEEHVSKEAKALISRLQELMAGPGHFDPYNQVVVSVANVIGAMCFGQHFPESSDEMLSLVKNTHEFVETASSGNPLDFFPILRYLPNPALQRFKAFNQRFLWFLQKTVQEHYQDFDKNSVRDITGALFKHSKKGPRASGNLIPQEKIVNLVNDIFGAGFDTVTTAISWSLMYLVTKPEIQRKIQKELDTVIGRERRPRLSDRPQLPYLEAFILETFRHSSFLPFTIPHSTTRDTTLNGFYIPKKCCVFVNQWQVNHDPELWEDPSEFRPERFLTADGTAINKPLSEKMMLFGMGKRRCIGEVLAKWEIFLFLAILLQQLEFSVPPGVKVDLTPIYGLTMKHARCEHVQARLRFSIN"}, "Cytochrome P450 2C9": {"biological_target": "Cytochrome P450 2C9 (Homo sapiens, UniProt P11712)", "sequence (P11712 whole entry)": "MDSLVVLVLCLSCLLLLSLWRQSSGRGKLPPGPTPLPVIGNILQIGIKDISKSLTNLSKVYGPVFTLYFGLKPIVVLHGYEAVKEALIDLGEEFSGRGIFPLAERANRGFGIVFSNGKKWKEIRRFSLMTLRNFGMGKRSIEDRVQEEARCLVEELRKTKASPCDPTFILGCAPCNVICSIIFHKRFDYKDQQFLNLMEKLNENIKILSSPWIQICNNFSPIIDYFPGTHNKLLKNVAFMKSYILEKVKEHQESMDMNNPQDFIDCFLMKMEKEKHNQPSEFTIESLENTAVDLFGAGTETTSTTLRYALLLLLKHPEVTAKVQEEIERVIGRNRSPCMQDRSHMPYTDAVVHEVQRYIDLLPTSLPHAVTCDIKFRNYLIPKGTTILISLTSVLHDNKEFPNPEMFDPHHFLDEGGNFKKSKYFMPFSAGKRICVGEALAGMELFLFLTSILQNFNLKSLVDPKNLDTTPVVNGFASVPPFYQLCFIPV"}, "Cytochrome P450 3A4": {"biological_target": "Cytochrome P450 3A4 (Homo sapiens, UniProt P08684)", "sequence (P08684 whole entry)": "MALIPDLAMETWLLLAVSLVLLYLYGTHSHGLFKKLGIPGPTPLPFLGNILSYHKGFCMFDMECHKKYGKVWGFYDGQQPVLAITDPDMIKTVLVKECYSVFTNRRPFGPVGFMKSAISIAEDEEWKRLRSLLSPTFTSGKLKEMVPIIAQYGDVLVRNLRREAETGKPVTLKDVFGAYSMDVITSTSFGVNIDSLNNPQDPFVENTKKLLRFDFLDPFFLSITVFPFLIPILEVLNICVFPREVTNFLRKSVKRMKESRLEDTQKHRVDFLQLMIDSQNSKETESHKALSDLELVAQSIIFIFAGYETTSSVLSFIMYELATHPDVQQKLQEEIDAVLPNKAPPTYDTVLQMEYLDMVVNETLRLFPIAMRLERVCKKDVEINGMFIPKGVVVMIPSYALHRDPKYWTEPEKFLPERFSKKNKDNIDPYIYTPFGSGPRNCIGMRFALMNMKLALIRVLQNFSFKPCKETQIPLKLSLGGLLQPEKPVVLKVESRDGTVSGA"}, "HEK293 [13]": {"test_system": "HEK293", "experiment": "cells", "format": "functional, cell-based", "conditions": "Homo sapiens"}, "[14]": {"biological_target": "Nuclear receptor subfamily 0 group B member 1 (Homo sapiens, UniProt P51843)", "sequence (P51843 whole entry)": "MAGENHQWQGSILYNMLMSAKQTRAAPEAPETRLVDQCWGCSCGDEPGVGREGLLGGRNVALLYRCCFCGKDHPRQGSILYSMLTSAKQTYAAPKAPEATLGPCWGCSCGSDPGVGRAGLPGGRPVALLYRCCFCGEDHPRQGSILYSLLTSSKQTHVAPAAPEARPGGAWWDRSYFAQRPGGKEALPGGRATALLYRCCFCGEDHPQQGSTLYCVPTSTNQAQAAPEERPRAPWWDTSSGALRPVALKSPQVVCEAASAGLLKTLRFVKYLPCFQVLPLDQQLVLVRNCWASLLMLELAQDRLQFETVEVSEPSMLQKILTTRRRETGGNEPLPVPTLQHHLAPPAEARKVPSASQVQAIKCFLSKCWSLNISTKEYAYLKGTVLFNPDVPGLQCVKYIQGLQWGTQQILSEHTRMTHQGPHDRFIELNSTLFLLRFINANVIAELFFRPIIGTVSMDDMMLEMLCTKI", "experiment": "Luminescence-based cell-based high throughput dose response assay for inhibitors of the orphan nuclear receptor subfamily 0, group B, member 1 (DAX1; NR0B1). [Related pubchem assays (depositor defined):AID504766, AID504790]", "format": "functional"}, "[15]": {"experiment": "Luminescence Cell-Based Dose Confirmation HTS to Identify Activators of 5'UTR Stem-Loop Driven Alpha-Synuclein mRNA Translation in H4 Neuroglioblastoma Cells. [Related pubchem assays: 1829 (Project Summary), 1814 (Primary HTS)]", "format": "functional"}, "[16]": {"experiment": "Luminescence Cell-Based Dose Response HTS to Identify Activators of Luciferase Translation or Activity in H4 […] Cells. [Related pubchem assays: 1829 (Project Summary), 1814 (Primary HTS)]", "format": "functional"}, "H4": {"test_system": "H4", "experiment": "Luminescence Cell-Based Dose Response HTS to Identify Activators of 5'UTR Stem-Loop Driven Prion Protein mRNA Translation in H4 Neuroglioblastoma Cells. [Related pubchem assays: 1829 (Project Summary), 1814 (Primary HTS)]", "format": "functional", "conditions": "Homo sapiens"}, "[17]": {"biological_target": "Beta-2 adrenergic receptor (Homo sapiens, UniProt P07550)", "sequence (P07550 whole entry)": "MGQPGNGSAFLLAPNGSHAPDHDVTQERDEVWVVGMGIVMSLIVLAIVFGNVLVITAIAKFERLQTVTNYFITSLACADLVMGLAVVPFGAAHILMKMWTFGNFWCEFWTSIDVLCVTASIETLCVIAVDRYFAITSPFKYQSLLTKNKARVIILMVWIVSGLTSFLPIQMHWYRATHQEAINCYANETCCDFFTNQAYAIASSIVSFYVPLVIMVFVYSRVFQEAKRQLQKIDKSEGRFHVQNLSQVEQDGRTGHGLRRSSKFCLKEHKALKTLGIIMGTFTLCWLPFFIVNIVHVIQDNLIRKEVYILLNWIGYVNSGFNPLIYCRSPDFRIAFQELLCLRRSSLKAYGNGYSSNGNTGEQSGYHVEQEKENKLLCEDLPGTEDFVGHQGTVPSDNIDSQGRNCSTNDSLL", "experiment": "beta2AR agonists driving receptor internalization, dose response, cell-based, FAP fluorogen, flow cytometry, cherry pick 1 (AID 588763)", "format": "functional"}, "[18]": {"experiment": "growth suppression of PTEN-null colon cells, dose response, cell-based, HCT116 PTEN knockout (AID 1047);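 note: HCT116 colon tumor cells with PTEN knocked out; cells exposed to compound for 60 hours before readout; potency for loss of cell viability measured by luminescence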", "format": "functional"}, "[19]": {"experiment": "growth suppression of beta-catenin-knockout colon cells, dose response, cell-based, HCT116, human colon tumor (AID 1045);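 note: HCT116 colon tumor cells with beta catenin knocked out; cells exposed to compound for 60 hours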", "format": "functional"}, "[20]": {"biological_target": "T3, Microphthalmia-associated transcription factor (Homo sapiens, UniProt O75030)", "T3 sequence (O75030 whole entry)": "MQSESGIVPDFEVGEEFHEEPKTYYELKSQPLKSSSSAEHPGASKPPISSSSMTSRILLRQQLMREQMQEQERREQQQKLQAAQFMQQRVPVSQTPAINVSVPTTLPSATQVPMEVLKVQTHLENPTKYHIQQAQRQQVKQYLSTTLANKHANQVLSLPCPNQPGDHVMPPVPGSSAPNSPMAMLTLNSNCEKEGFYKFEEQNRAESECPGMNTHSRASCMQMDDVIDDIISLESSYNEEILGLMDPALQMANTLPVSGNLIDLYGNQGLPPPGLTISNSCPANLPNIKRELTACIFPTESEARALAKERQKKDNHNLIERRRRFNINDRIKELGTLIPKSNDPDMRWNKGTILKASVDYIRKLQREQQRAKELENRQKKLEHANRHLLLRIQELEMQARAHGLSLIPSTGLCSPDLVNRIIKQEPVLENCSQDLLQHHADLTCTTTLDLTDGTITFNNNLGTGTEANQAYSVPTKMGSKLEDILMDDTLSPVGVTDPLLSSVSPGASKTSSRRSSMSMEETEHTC", "experiment": "TRPM1 promoter luciferase signal decrease, dose response, MITF inhibitor project, cell-based, SK-MEL-5, cherry-picked, set 3 (AID 493073)", "format": "functional"}, "Vero [21]": {"test_system": "Vero", "experiment": "cells", "format": "functional, cell-based", "conditions": "Chlorocebus sabaeus"}, "Vero [22]": {"test_system": "Vero", "experiment": "cells", "format": "functional", "conditions": "Chlorocebus sabaeus"}, "Keap1/Nrf2": {"biological_target": "Keap1/Nrf2 (Homo sapiens, UniProt Q14145)", "sequence (Q16236 whole entry)": "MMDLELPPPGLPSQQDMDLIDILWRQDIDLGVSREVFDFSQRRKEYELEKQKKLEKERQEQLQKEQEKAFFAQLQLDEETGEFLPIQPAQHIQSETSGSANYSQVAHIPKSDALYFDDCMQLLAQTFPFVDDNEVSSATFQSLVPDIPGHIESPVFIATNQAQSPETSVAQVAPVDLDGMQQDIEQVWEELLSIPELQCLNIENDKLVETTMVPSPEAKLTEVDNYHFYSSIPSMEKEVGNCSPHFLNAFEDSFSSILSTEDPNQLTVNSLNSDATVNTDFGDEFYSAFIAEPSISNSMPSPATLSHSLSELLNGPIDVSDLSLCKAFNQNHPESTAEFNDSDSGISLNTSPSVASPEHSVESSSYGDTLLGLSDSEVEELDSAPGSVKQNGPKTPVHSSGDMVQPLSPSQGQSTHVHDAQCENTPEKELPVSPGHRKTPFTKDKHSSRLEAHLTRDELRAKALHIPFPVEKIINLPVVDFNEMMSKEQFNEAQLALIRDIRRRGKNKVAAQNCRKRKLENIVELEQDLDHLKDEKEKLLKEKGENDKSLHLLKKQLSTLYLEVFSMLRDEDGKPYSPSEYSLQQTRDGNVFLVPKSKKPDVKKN", "sequence (Q14145 whole entry)": "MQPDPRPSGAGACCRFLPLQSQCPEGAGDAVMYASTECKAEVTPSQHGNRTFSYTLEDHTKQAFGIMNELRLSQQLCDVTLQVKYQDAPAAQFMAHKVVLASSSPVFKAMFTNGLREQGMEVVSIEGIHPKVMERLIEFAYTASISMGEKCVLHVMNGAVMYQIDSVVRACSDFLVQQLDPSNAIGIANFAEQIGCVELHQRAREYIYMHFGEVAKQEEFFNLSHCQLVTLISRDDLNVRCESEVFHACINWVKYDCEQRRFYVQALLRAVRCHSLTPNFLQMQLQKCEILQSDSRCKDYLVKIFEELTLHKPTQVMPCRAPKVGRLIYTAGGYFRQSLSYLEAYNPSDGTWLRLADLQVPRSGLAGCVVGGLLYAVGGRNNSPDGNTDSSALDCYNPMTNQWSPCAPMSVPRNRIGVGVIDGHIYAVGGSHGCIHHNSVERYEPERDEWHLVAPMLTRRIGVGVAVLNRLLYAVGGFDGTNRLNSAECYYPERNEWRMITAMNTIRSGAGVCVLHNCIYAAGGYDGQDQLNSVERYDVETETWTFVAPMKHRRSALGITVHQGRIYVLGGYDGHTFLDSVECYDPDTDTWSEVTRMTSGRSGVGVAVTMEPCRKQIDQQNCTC", "experiment": "Keap1-Nrf2 protein-protein interaction inhibitors, dose response, biochemical, fluorescence polarization, cherry-picked samples (AID 588683)"}, "[23]": {"biological_target": "Dual specificity tyrosine-phosphorylation-regulated kinase 1A (Rattus norvegicus, UniProt Q63470)", "format": "biochemical, Homo sapiens"}}, "note": "Calls of active or inactive are those of the source."}
{"smiles": "COc1ccccc1CN(Cc1cc2c(C)ccc(C)c2nc1O)Cc1nnnn1Cc1ccco1", "values": [{"measurement": "IC50", "setting": "Protein skinhead-1", "result": "> 100 µM (inactive)"}, {"measurement": "EC50", "setting": "HEK293 [1]", "result": "> 59.6 µM (inactive)"}, {"measurement": "EC50", "setting": "HEK293 [2]", "result": "> 59.6 µM (inactive)"}]}
{"smiles": "C=CCn1c(O)nnc1Sc1ncc([N+](=O)[O-])s1", "values": [{"measurement": "AC50", "setting": "[3]", "result": "1.85 µM (active)"}, {"measurement": "IC50", "setting": "[4]", "result": "21.7 µM (inactive)"}, {"measurement": "IC50", "setting": "CHO", "result": "1.99 µM (active)"}, {"measurement": "IC50", "setting": "[5]", "result": "1.32 µM (active)"}]}
{"smiles": "CCN(CC(O)CON=C1c2ccccc2-c2ccccc21)S(=O)(=O)c1ccc(C)cc1", "note": "(stereo not given)", "values": [{"measurement": "EC50", "setting": "[6]", "result": "1.68 µM (active)"}, {"measurement": "EC50", "setting": "[7]", "result": "> 60 µM (not active)"}, {"measurement": "AC50", "setting": "[8]", "result": "2.96 µM (active)"}, {"measurement": "AC50", "setting": "[9]", "result": "41.7 µM (active)"}, {"measurement": "AC50", "setting": "[10]", "result": "2.97 µM (active)"}, {"measurement": "AC50", "setting": "[11]", "result": "4.5 µM (active)"}, {"measurement": "AC50", "setting": "[12]", "result": "2.44 µM (active)"}, {"measurement": "EC50", "setting": "HEK293 [1]", "result": "> 59.6 µM (inactive)"}, {"measurement": "EC50", "setting": "HEK293 [2]", "result": "> 59.6 µM (inactive)"}]}
{"smiles": "Cc1nn(C)c(Oc2cccc(Cl)c2)c1C=O", "values": [{"measurement": "AC50", "setting": "Cytochrome P450 1A2", "result": "11.2 µM (inconclusive)"}, {"measurement": "AC50", "setting": "Cytochrome P450 2C9", "result": "0.891 µM (inconclusive)"}, {"measurement": "AC50", "setting": "Cytochrome P450 3A4", "result": "inconclusive"}]}
{"smiles": "O=C(NCCN1CCCCC1)Nc1ccc([N+](=O)[O-])cc1", "values": [{"measurement": "IC50", "setting": "HEK293 [13]", "result": "> 67.5 µM (inactive)"}, {"measurement": "IC50", "setting": "[14]", "result": "> 67.5 µM (inactive)"}]}
{"smiles": "Cc1ccccc1OCC(=O)Nc1ccc2c(c1)OCCO2", "values": [{"measurement": "EC50", "setting": "[15]", "result": "51.8 µM (active)"}, {"measurement": "EC50", "setting": "[16]", "result": "4.75 µM (active)"}, {"measurement": "EC50", "setting": "H4", "result": "75.2 µM (active)"}, {"measurement": "IC50", "setting": "HEK293 [13]", "result": "> 67.5 µM (inactive)"}, {"measurement": "IC50", "setting": "[14]", "result": "> 67.5 µM (inactive)"}]}
{"smiles": "CC(=O)Nc1ccc(S(=O)(=O)NCCc2csc(-c3cccnc3)n2)cc1", "values": [{"measurement": "EC50", "setting": "[17]", "result": "0.162 µM (active)"}]}
{"smiles": "Cc1ccccc1Cn1c(=N)n(CC(=O)c2ccc([N+](=O)[O-])cc2)c2ccccc21", "values": [{"measurement": "EC50", "setting": "[18]", "result": "9.32 µM (active)"}, {"measurement": "EC50", "setting": "[19]", "result": "8.1 µM (active)"}, {"measurement": "AC50", "setting": "[20]", "result": "5.63 µM (active)"}, {"measurement": "IC50", "setting": "Vero [21]", "result": "> 25 µM (active)"}, {"measurement": "CC50", "setting": "Vero [22]", "result": "14 µM (active)"}, {"measurement": "EC50", "setting": "[17]", "result": "15.2 µM (inactive)"}]}
{"smiles": "O=C1c2ccccc2C(=O)c2c1ccc(O)c2O", "note": "[ATHRAQUINONES A]", "values": [{"measurement": "AC50", "setting": "Keap1/Nrf2", "result": "> 52 µM (inactive)"}, {"measurement": "AC50", "setting": "[23]", "result": "4.54 µM (active)"}]}
